15 compounds from ChEMBL document CHEMBL5291721, “A preclinical secondary pharmacology resource illuminates target-adverse drug reaction associations of marketed drugs” (Nat Commun, 2023) can be followed below.

One may read the AC50 as the concentration giving half of the maximal activity seen.

In assay [1] the target is T1, Alpha-2A adrenergic receptor (Homo sapiens, UniProt P08913).
T1 sequence (P08913 whole entry): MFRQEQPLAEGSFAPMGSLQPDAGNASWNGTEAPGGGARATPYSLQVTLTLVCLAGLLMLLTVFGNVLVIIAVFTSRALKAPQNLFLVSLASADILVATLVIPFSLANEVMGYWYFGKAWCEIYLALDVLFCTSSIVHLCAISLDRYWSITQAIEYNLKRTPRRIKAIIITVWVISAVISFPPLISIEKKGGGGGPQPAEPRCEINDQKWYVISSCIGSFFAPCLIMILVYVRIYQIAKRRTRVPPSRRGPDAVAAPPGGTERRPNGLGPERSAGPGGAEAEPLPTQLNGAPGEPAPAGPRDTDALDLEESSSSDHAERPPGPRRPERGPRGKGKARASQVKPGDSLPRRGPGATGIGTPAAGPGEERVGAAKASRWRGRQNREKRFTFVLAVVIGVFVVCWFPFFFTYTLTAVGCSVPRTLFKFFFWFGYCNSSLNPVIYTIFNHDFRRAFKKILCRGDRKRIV

Assay [2] has as its target T2, Muscarinic acetylcholine receptor M2 (Homo sapiens, UniProt P08172).
T2 sequence (P08172 whole entry): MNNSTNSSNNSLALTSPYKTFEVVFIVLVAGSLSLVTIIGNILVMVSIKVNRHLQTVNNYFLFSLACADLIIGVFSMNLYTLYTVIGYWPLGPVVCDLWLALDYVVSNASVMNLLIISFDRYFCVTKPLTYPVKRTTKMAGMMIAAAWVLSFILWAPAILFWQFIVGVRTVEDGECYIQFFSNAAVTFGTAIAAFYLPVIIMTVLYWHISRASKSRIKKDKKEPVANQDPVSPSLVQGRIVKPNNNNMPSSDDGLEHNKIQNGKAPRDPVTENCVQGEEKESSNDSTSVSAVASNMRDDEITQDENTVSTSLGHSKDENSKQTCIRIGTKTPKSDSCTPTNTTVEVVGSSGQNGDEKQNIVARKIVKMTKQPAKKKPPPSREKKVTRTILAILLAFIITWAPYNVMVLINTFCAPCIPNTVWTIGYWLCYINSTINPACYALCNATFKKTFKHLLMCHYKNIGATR

The target of the next assay is D(1A) dopamine receptor (Homo sapiens, UniProt P21728).
Sequence of D(1A) dopamine receptor (P21728 whole entry): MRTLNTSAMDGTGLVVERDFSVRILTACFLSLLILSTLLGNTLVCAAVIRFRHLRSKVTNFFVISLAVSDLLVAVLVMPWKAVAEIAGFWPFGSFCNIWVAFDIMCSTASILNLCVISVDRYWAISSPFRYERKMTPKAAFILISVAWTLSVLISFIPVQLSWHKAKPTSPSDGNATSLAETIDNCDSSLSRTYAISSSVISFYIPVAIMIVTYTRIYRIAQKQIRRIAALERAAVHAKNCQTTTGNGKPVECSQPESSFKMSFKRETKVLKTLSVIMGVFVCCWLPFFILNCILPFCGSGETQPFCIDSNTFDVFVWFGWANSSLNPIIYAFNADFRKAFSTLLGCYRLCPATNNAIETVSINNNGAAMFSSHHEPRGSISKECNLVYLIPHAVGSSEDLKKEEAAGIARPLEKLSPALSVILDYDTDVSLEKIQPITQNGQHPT
Another assay deals with T3, Endothelin-1 receptor (Homo sapiens, UniProt P25101).
T3 sequence (P25101 whole entry): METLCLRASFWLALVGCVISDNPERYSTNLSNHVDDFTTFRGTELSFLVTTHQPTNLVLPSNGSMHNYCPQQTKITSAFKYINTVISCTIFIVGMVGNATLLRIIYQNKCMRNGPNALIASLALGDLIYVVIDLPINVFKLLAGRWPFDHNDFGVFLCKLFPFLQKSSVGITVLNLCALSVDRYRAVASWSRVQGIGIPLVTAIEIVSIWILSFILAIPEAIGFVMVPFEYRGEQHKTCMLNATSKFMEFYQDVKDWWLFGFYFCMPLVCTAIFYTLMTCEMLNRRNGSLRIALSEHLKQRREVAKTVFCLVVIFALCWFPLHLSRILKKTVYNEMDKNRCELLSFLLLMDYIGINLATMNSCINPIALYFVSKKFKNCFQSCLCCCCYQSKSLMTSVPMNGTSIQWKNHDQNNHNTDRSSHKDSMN

In assay [3] the target is Glutamate receptor ionotropic, NMDA 1 (Rattus norvegicus, UniProt P35439).
Assay [4] has as its target 5-hydroxytryptamine receptor 2B (Homo sapiens, UniProt P41595). In kind it is functional, cell-based.
The target of the next assay is T4, Progesterone receptor (Homo sapiens, UniProt P06401).
T4 sequence (P06401 whole entry): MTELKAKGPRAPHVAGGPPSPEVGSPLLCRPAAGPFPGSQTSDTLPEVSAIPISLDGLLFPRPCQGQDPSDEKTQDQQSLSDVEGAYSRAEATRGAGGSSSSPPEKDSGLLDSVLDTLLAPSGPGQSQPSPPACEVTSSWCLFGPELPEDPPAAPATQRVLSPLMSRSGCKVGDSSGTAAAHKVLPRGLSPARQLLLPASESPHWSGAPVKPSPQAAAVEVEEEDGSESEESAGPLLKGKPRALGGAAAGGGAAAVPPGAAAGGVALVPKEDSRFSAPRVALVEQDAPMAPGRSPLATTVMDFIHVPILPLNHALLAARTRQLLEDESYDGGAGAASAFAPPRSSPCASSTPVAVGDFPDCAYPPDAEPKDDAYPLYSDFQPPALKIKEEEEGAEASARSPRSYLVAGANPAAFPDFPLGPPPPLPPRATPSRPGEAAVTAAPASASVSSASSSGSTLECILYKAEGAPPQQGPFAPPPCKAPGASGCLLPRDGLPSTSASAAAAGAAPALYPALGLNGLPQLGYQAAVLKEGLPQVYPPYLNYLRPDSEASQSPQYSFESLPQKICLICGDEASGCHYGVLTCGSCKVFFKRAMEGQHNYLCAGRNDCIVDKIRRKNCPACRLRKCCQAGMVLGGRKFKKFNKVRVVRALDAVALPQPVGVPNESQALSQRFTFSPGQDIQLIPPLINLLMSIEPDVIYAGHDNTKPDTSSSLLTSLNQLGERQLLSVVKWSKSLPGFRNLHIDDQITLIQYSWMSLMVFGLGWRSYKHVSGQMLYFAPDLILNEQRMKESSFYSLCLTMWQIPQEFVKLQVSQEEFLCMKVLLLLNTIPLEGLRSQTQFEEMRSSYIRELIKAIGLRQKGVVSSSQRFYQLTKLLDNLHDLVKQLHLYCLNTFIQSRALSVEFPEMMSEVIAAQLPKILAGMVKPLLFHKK

For a further assay, the target named is T5, Thromboxane A2 receptor (Homo sapiens, UniProt P21731).
T5 sequence (P21731 whole entry): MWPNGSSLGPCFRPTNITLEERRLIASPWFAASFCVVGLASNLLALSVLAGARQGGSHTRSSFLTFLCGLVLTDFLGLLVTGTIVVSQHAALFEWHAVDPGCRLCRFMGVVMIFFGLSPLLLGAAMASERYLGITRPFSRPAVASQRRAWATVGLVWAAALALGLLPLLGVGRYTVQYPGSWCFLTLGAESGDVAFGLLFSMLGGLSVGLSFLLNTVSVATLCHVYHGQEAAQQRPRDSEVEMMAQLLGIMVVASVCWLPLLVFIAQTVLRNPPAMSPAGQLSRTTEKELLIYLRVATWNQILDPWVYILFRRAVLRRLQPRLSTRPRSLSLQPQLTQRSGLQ
In kind it is functional, cell-based.
Also: assay procedure not described here.

Sequence of 5-hydroxytryptamine receptor 2B (P41595 whole entry): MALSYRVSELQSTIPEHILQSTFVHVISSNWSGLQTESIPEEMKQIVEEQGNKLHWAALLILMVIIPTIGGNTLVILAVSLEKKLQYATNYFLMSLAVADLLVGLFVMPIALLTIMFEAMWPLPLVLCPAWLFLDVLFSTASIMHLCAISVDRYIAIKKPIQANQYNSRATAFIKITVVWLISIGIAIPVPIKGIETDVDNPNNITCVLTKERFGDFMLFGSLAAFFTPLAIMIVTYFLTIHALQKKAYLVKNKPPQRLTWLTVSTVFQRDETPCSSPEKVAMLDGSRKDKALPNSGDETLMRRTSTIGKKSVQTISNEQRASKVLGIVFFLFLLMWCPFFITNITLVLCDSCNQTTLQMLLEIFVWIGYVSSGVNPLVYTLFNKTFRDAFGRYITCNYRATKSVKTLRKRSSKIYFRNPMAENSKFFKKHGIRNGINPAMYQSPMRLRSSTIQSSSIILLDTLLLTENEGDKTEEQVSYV

In the case of `Nc1nc(N)c2nc(-c3ccccc3)c(N)nc2n1`, the half-maximal activity concentration (AC50) (in assay [1]; in assay [2]; at D(1A) dopamine receptor; at Endothelin-1 receptor; in assay [3]; in assay [4]) was more than 30 µM throughout. The AC50 at Progesterone receptor and at Thromboxane A2 receptor was more than 30 µM throughout.

Turning to `C[C@H]1O[C@H](O[C@H]2[C@H](O)[C@@H](O)[C@@H](O[C@H]3[C@H](O)[C@@H](O)C(O)O[C@@H]3CO)O[C@@H]2CO)[C@H](O)[C@@H](O)[C@@H]1N[C@H]1C=C(CO)[C@@H](O)[C@H](O)[C@H]1O` (stereo partly drawn) [ACARBOSE], the AC50 in assay [1] is more than 30 µM; in assay [2], more than 30 µM; at D(1A) dopamine receptor, more than 30 µM; on Endothelin-1 receptor, more than 30 µM; in assay [3], more than 10 µM; in assay [4] it was more than 30 µM. In addition, the half-maximal activity concentration (AC50) at Progesterone receptor and at Thromboxane A2 receptor was more than 30 µM in each case.

For `Oc1ncnc2[nH]ncc12` [ALLOPURINOL], the AC50 in assay [1] is more than 30 µM; in assay [2], more than 30 µM; at D(1A) dopamine receptor, more than 30 µM; on Endothelin-1 receptor, more than 30 µM; in assay [3], more than 10 µM; in assay [4], more than 30 µM. In addition, the half-maximal activity concentration (AC50) on Progesterone receptor and at Thromboxane A2 receptor was more than 30 µM throughout.

Turning to `COc1cc(Nc2c(C#N)cnc3cc(OCCCN4CCN(C)CC4)c(OC)cc23)c(Cl)cc1Cl` [BOSUTINIB], the half-maximal activity concentration (AC50) in assay [1] is 7.58 µM; in assay [2], 4.94 µM; on D(1A) dopamine receptor, 4.64 µM; at Endothelin-1 receptor, more than 30 µM; in assay [3] it was more than 10 µM; in assay [4] it was more than 30 µM. The half-maximal activity concentration (AC50) was 7.75 µM on Progesterone receptor and more than 10 µM on Thromboxane A2 receptor.

Consider `CN(CCOc1ccc(NS(C)(=O)=O)cc1)CCc1ccc(NS(C)(=O)=O)cc1` [DOFETILIDE], for which the AC50 in assay [1] was more than 30 µM; in assay [2], 6.73 µM; on D(1A) dopamine receptor, more than 30 µM; on Endothelin-1 receptor, more than 30 µM; in assay [3], more than 10 µM; in assay [4], more than 30 µM. Besides, the AC50 at Progesterone receptor and at Thromboxane A2 receptor was more than 30 µM in each case.

Take `COc1cc2c(cc1OC)C(=O)C(CC1CCN(Cc3ccccc3)CC1)C2` (stereo not drawn) [DONEPEZIL]: the half-maximal activity concentration (AC50) is 15.9 µM in assay [1]; more than 30 µM on D(1A) dopamine receptor; more than 30 µM on Endothelin-1 receptor; more than 30 µM on Progesterone receptor; more than 30 µM at Thromboxane A2 receptor.

In the case of `C#C[C@]1(O)CC[C@H]2[C@@H]3CCc4cc(O)ccc4[C@H]3CC[C@@]21C` [ETHINYL ESTRADIOL], the AC50 in assay [1] was more than 30 µM; in assay [2], more than 30 µM; at D(1A) dopamine receptor it was more than 30 µM; at Endothelin-1 receptor, more than 30 µM; in assay [3] it was more than 10 µM; in assay [4] it was more than 30 µM. Also, the AC50 on Progesterone receptor was 0.02 µM; on Thromboxane A2 receptor it was more than 30 µM.

As for `CC(C)C(=O)Nc1ccc([N+](=O)[O-])c(C(F)(F)F)c1` [FLUTAMIDE], the half-maximal activity concentration (AC50) is more than 30 µM in assay [1]; more than 30 µM in assay [2]; more than 30 µM at D(1A) dopamine receptor; more than 10 µM in assay [3]; more than 30 µM in assay [4]; more than 30 µM at Progesterone receptor. Also, the AC50 on Thromboxane A2 receptor was more than 30 µM.

For the compound `CN(C)C(=O)Oc1ccc[n+](C)c1` [PYRIDOSTIGMINE], the AC50 (in assay [1]; in assay [2]; at D(1A) dopamine receptor; in assay [4]; at Progesterone receptor; on Thromboxane A2 receptor) was more than 30 µM each time.

For the compound `O=C(NC[C@H]1CN(c2ccc(N3CCOCC3=O)cc2)C(=O)O1)c1ccc(Cl)s1` [RIVAROXABAN], the AC50 (in assay [1]; in assay [2]; on D(1A) dopamine receptor; in assay [3]; in assay [4]; at Progesterone receptor) was more than 30 µM each time. The same compound displayed an AC50 on Thromboxane A2 receptor of more than 30 µM.

`Cc1cc2c(cc1CC(=O)c1sccc1S(=O)(=O)Nc1onc(C)c1Cl)OCO2` [SITAXENTAN]: the AC50 (in assay [1]; in assay [2]; at D(1A) dopamine receptor; in assay [4]; at Progesterone receptor; on Thromboxane A2 receptor) was more than 30 µM in each case.

In the case of `CC(C)OC(=O)[C@H](C)N[P@](=O)(OC[C@H]1O[C@@H](n2ccc(=O)[nH]c2=O)[C@](C)(F)[C@@H]1O)Oc1ccccc1` [SOFOSBUVIR], the concentration at half-maximal activity (AC50) (in assay [1]; in assay [2]; at D(1A) dopamine receptor; in assay [4]; at Progesterone receptor; at Thromboxane A2 receptor) was more than 30 µM throughout.

Regarding `Cc1ccc(O)c2ncccc12` [TILIQUINOL], the AC50 (in assay [1]; in assay [2]; at D(1A) dopamine receptor; in assay [4]; at Progesterone receptor; at Thromboxane A2 receptor) was more than 30 µM each time.

Consider `CC(=O)OC[C@H]1O[C@@H](n2ccc(=O)[nH]c2=O)[C@H](OC(C)=O)[C@@H]1OC(C)=O` [URIDINE TRIACETATE], for which the AC50 (in assay [1]; in assay [2]; on D(1A) dopamine receptor; in assay [4]; on Progesterone receptor; on Thromboxane A2 receptor) was more than 30 µM each time.

For the compound `CCOC(=O)N[C@@H]1CC[C@@H]2[C@@H](C1)C[C@H]1C(=O)O[C@H](C)[C@H]1[C@H]2/C=C/c1ccc(-c2cccc(F)c2)cn1` [VORAPAXAR], the AC50 (in assay [1]; in assay [2]; at D(1A) dopamine receptor; in assay [4]; on Progesterone receptor; on Thromboxane A2 receptor) was more than 30 µM each time.
